Test results taken from ChEMBL document CHEMBL4400517, “Marine natural products as potential anti-tubercular agents” (Eur J Med Chem, 2019).
Values after ≈ are worked out from the molar mass of the structure shown.

These compounds were tested on Mycobacterium tuberculosis (assay: Antibiofilm activity against Mycobacterium bovis BCG). Settings: variant bovis BCG.
Format: functional, organism-based
Compound `COc1cc(OC)c2c(c1)[C@@]13CC(=C(C)C)C[C@H]1[C@](C)(CCC=C(C)C)[C@@](Br)(C2=O)C3=O` has an IC50 of 0.16 to 2.5 µM. `CO[C@H]1/C=C/O[C@@]2(C)Oc3c(C)c(O)c4c(O)c(c(/C=N/N5CCN(C)CC5)c(O)c4c3C2=O)NC(=O)/C(C)=C\C=C\[C@H](C)[C@H](O)[C@@H](C)[C@@H](O)[C@@H](C)[C@H](OC(C)=O)[C@@H]1C` [RIFAMPIN] showed an IC50 of 1.22 µM. With `COc1cc(O)c2c(c1)[C@@]13CC(=C(C)C)C[C@H]1[C@](C)(CCC=C(C)C)[C@@](Br)(C2=O)C3=O` the IC50 was 0.64 to 10.3 µM. `CC(C)=C1C[C@H]2C(C)(C)[C@@]3(Br)C(=O)c4c(O)cc(O)cc4[C@]2(C1)C3=O` gave an IC50 of 0.22 to 13.9 µM.

Each compound was assayed on Mycobacterium tuberculosis (assay: Antibiofilm activity against Mycobacterium bovis BCG after 5 weeks). Settings: variant bovis BCG.
Format: functional
For `CC(C)=C/C=C\[C@H](C)[C@H]1CC[C@]2(C)C[C@H]3[C@H](C(=O)C[C@@]3(C)O)/C(C=O)=C\C[C@@H]12`, the MIC was 8.2 µM (≈ 3.15 µg/mL).

Each compound was assayed on Mycobacterium tuberculosis (assay: Antimycobacterial activity against Mycobacterium bovis BCG). Settings: variant bovis BCG.
Format: functional
`COC(=O)N[C@H]1[C@@H](C)O[C@@H](O[C@H]2C/C=C(\C)[C@@H]3C=C[C@@H]4[C@@H](O[C@@H]5C[C@@H](O[C@@H]6C[C@@H](O)[C@@H](O[C@H]7C[C@@H](C)[C@H](OC)[C@H](O)C7)[C@H](C)O6)[C@@H](O)[C@H](C)O5)[C@@H](C)C[C@H](C)[C@H]4[C@]3(C)C(=O)C3=C(O)[C@@]4(C[C@@H](C)C(COC(C)=O)=C[C@H]4/C=C/2C)OC3=O)C[C@]1(C)N` gave an MIC of 1.3 µM (≈ 1.56 µg/mL). With `C1=C2CCCC/C=C\C=C\CCN3CC[C@@H]4[C@H](CCCCCC/C=C\C=C/CCN(C2)C[C@H]14)C3` (relative stereo) [HALICYCLAMINE A] the MIC was 2.16 to 10.8 µM (≈ 1 to 5.01 µg/mL). In the case of `COC(=O)N[C@H]1[C@@H](C)O[C@@H](O[C@H]2C/C=C(\C)[C@@H]3C=C[C@@H]4[C@@H](O[C@@H]5C[C@@H](O[C@@H]6C[C@@H](O)[C@@H](O[C@H]7C[C@@H](C)[C@H](OC)[C@H](O)C7)[C@H](C)O6)[C@@H](O)[C@H](C)O5)[C@@H](C)C[C@H](C)[C@H]4[C@]3(C)C(=O)C3=C(O)[C@@]4(C[C@@H](C)C(CO)=C[C@H]4/C=C/2C)OC3=O)C[C@]1(C)N`, the MIC is reported as 1.35 µM (≈ 1.56 µg/mL). For `COc1ccc2c(c1)CC1=C2[C@H](O)[C@@]2(O)C(=O)N3CCC[C@H]3C(=O)N2[C@H]1C=C(C)C`, the MIC was 2.41 µM (≈ 0.989 µg/mL). In the case of `COC(=O)Nc1coc(C(=O)Nc2coc(C(=O)NCCc3ccc(O)cc3)c2)c1` [PROXIMICIN B], the MIC is reported as 15.1 µM (≈ 6.25 µg/mL). Work on `NNC(=O)c1ccncc1` [ISONIAZID] yielded an MIC of 0.36 µM (≈ 0.0494 µg/mL). In the case of `C=CC(C)(C)c1[nH]c2ccccc2c1/C=c1\[nH]c(=O)c2n(c1=O)CCC=2C1=c2c(=O)[nH]/c(=C\c3c(C(C)(C)C=C)[nH]c4ccccc34)c(=O)n2CC1`, the MIC is reported as 9.03 µM (≈ 6.26 µg/mL). `COC(=O)N[C@H]1[C@@H](C)O[C@@H](O[C@H]2C/C=C(\C)[C@@H]3C=C[C@@H]4[C@@H](O[C@@H]5C[C@@H](O[C@@H]6C[C@@H](O)[C@@H](O[C@H]7C[C@@H](C)[C@H](OC)[C@H](O)C7)[C@H](C)O6)[C@@H](O)[C@H](C)O5)[C@@H](C)C[C@H](C)[C@H]4[C@]3(C)C(=O)C3=C(O)[C@@]4(C[C@@H](C)C(CO)=C[C@H]4/C=C/2C)OC3=O)C[C@]1(C)[N+](=O)[O-]` showed an MIC of 0.66 µM (≈ 0.782 µg/mL). Work on `O=C1N[C@@H](Cc2c[nH]c3ccccc23)C(=O)N2CCC[C@@H]12` [BREVIANAMIDE F] yielded an MIC of 44.2 µM (≈ 12.5 µg/mL).
